Nine compounds from patent US8906944B2, “Compounds as tyrosine kinase modulators” (Allergan, Inc., priority 2009, dated 2014) can be followed below.

The target of assay [1] is VEGFR2 (Homo sapiens, UniProt P35968). Put plainly: VEGF stimulated Ca++ signal in vitro (FLIPR).
Assay [2] addresses T1, human VEGF receptor (VEGFR-2) (Homo sapiens, UniProt P35968).
T1 construct: The cytoplasmic domain of the human VEGF receptor (VEGFR-2) was expressed; His; made in house; host or cells: insect cells (baculovirus)
Nature of the assay: VEGFR2 kinase assay. The class given is biochemical. The settings on record: His-VEGFR-2 cytoplasmic domain, 3.6 μM ATP; Table IV, amide or urea linker; read-out: VEGFR2 Enzyme IC50. In short, it runs like this:
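His-tagged VEGFR-2 cytoplasmic domain from baculovirus-infected insect cells phosphorylating plate-bound poly-Glu-Tyr (4:1). IC50 from blank-subtracted optical density versus compound concentration.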

Assay [3] addresses VEGFR1 (Homo sapiens, UniProt P17948). Nature of the assay: VEGFR1 enzyme assay. It is filed as biochemical. The settings on record: Table IV, amide or urea linker.
Assay [4] deals with PDGFβ (Homo sapiens, UniProt P09619). Nature of the assay: PDGFβ enzyme assay. The settings on record: Table IV, amide or urea linker. The class given is biochemical.
Chain of PDGFβ (P09619 33-1106): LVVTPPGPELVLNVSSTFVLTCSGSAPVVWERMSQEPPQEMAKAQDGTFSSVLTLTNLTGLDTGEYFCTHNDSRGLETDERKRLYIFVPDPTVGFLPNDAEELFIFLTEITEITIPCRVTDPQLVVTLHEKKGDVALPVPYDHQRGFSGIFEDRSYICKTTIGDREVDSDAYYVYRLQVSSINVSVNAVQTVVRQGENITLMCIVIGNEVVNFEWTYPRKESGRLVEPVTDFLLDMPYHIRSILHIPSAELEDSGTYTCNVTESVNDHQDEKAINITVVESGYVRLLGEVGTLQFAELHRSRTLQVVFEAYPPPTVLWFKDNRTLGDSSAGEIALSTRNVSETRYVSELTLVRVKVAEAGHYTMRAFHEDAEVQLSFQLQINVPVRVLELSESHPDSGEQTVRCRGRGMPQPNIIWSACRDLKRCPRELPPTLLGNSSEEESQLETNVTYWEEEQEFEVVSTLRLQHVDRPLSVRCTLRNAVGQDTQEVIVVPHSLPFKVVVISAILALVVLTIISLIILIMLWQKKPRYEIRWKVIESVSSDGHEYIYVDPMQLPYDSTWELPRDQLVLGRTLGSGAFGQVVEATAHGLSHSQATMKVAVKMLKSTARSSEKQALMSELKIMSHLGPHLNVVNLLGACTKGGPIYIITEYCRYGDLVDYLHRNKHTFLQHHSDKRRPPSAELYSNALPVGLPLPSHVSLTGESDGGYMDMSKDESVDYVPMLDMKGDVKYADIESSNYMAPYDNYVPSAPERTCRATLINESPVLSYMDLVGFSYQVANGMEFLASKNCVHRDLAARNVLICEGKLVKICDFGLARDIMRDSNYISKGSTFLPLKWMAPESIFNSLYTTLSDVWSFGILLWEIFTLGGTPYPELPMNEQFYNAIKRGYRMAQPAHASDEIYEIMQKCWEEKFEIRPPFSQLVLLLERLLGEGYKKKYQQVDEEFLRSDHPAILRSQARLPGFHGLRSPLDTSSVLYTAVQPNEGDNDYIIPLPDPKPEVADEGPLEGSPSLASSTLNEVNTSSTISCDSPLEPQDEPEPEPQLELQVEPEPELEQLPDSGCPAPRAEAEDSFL

Chain of VEGFR1 (P17948 27-1338, species assumed): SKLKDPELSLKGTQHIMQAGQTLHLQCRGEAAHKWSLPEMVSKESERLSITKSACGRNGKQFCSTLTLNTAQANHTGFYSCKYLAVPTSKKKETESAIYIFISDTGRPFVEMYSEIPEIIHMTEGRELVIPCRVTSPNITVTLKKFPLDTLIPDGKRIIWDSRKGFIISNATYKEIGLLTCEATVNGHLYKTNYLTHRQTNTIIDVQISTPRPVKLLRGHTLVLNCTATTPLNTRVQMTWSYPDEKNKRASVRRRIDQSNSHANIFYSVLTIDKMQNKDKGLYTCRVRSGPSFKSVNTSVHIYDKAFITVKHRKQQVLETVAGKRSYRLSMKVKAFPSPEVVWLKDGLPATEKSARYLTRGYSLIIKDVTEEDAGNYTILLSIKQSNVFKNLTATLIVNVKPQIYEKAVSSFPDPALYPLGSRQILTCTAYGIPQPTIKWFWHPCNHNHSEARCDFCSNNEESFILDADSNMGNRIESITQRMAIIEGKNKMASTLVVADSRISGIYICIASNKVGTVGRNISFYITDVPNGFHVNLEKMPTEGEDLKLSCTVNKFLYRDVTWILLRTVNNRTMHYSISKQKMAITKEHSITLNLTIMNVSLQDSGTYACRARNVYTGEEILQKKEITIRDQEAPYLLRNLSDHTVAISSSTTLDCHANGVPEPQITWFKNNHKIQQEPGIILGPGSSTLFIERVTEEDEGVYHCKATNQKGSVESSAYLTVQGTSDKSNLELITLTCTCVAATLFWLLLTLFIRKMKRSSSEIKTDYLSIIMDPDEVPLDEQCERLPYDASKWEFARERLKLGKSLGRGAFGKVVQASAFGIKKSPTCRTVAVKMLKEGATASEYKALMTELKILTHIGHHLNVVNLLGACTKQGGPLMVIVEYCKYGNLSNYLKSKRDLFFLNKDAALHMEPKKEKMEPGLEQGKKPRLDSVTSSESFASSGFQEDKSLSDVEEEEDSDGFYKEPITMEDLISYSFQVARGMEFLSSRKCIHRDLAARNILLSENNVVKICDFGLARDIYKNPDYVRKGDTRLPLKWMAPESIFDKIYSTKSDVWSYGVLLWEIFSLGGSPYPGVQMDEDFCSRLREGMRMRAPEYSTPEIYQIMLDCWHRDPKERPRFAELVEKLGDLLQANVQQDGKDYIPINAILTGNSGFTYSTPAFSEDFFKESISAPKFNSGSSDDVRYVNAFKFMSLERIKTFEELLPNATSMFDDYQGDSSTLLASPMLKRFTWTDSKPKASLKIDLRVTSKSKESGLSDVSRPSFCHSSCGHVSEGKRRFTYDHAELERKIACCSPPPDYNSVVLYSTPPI
Chain of VEGFR2 (P35968 20-1356): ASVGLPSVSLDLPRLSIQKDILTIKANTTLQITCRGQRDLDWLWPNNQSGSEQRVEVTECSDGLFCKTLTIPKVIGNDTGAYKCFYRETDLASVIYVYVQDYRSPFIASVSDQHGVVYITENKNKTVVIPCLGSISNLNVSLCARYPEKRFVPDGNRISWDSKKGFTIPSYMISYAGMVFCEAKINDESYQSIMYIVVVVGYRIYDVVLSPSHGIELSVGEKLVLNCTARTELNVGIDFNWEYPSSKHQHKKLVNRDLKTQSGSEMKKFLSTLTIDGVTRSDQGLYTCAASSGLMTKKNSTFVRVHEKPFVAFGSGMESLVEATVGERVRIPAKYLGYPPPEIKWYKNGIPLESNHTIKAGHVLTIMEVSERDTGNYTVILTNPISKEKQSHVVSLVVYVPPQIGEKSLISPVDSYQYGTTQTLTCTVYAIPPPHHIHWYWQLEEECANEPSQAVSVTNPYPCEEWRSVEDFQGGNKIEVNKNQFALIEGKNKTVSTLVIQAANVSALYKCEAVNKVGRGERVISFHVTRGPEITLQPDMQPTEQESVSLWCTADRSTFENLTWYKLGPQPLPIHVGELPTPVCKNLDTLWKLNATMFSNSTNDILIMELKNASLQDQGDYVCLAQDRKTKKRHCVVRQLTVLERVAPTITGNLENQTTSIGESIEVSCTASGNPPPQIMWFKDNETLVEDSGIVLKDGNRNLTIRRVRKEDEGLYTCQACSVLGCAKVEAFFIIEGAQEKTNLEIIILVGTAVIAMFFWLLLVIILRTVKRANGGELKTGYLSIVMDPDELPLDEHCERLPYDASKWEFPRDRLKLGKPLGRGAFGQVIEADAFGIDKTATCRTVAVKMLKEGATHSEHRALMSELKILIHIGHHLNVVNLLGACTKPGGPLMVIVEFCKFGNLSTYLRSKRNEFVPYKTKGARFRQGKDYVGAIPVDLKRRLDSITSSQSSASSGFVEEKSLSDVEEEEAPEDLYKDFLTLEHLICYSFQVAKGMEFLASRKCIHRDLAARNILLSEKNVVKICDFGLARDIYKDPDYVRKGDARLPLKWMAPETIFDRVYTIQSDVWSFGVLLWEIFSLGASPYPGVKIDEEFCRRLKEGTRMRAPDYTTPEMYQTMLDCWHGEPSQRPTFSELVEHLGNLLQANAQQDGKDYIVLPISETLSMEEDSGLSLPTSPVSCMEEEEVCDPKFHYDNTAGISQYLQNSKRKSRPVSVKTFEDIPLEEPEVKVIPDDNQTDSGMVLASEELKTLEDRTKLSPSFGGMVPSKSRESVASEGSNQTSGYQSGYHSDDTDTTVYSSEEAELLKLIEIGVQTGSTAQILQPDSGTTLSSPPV
T1 sequence (P35968 786-1356 limits assumed): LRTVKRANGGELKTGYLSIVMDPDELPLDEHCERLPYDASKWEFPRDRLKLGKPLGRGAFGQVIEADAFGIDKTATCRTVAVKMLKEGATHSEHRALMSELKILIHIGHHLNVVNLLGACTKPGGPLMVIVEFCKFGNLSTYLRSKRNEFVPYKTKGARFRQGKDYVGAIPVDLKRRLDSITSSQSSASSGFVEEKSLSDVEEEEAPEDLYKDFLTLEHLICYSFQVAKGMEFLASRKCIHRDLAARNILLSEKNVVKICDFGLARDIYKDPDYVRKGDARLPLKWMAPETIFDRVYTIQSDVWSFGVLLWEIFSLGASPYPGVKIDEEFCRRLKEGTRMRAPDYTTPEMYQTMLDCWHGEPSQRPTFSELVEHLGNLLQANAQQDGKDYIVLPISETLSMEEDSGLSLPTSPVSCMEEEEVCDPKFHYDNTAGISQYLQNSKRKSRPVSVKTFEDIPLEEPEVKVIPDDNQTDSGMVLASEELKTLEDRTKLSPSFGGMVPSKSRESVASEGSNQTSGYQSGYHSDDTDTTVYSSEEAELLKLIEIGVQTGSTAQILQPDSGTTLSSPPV

With `COC(=O)[C@@H]1CCCN1CCCNC(=O)c1c[nH]c(-c2cc(Oc3ccc(F)c(NC(=O)c4occc4C)c3)ccn2)c1` [Example 188, methyl 1-[3-({[5-(4-{4-fluoro-3-[(3-methyl-2-furoyl)amino]phenoxy}pyridin-2-yl)-1H-pyrrol-3-yl]carbonyl}amino)propyl]pyrrolidine-2-carboxylate], the IC50 – broadly, the concentration needed to halve the response being measured – was 0.005 µM in assay [1], 0.027 µM in assay [2] and 0.032 µM in assay [3].

Consider `Cc1ccoc1C(=O)Nc1cc(Oc2ccnc(-c3cc(C(=O)NCCCN4CCC(O)CC4)c[nH]3)c2)ccc1F` [Example 189, 5-(4-{4-fluoro-3-[(3-methyl-2-furoyl)amino]phenoxy}pyridin-2-yl)-N-[3-(4-hydroxypiperidin-1-yl)propyl]-1H-pyrrole-3-carboxamide], for which the IC50 in assay [1] is 0.015 µM; in assay [2], 0.034 µM; in assay [3], 0.037 µM.

In the case of `Cc1ccoc1C(=O)Nc1cc(Oc2ccnc(-c3cc(C(=O)NCCCN4CCN(C)CC4)c[nH]3)c2)ccc1F` [Example 193, 5-(4-{4-fluoro-3-[(3-methyl-2-furoyl)amino]phenoxy}pyridin-2-yl)-N-[3-(4-methylpiperazin-1-yl)propyl]-1H-pyrrole-3-carboxamide], the IC50 in assay [1] was 0.011 µM; in assay [2] it was 0.031 µM; in assay [3], 0.035 µM.

On to `COCCOC(=O)CCCNC(=O)c1c[nH]c(-c2cc(Oc3ccc(NC(=O)Nc4cc(C)ccc4F)cc3)ccn2)c1` [Example 233, 2-methoxyethyl 4-{[(5-{4-[4-({[(2-fluoro-5-methylphenyl)amino]carbonyl}amino)phenoxy]pyridin-2-yl}-1H-pyrrol-3-yl)carbonyl]amino}butanoate], for which the IC50 is 0.022 µM in assay [4], 0.005 µM in assay [1] and 0.009 µM in assay [2].

On to `Cc1cccc(NC(=O)Nc2ccc(Oc3ccnc(-c4cc(C(=O)NN)c[nH]4)c3)cc2)c1` [Example 238, 1-[4-({2-[4-(hydrazinocarbonyl)-1H-pyrrol-2-yl]pyridin-4-yl}oxy)phenyl]-3-(3-methylphenyl)urea], for which the results for the IC50 in assay [4], in assay [1] and in assay [2] were 0.028 µM, 0.004 µM and 0.019 µM, respectively.

In the case of `Cc1cccc(NC(=O)Nc2ccc(Oc3ccnc(-c4cc(C(=O)NCCCN5CCOCC5)c[nH]4)c3)cc2)c1` [Example 239, 5-{4-[4-({[(3-methylphenyl)amino]carbonyl}amino)phenoxy]pyridin-2-yl}-N-(3-morpholin-4-ylpropyl)-1H-pyrrole-3-carboxamide], the IC50 turned out to be 0.016 µM in assay [4], 0.002 µM in assay [1] and 0.007 µM in assay [2].

As for `Cc1ccc(F)c(NC(=O)c2ccc(F)c(Oc3ccnc(-c4cc(C(=O)NCCC(=O)O)c[nH]4)c3)c2)c1` [Example 258, 3-[({5-[4-(2-fluoro-5-{[(2-fluoro-5-methylphenyl)amino]carbonyl}phenoxy)pyridin-2-yl]-1H-pyrrol-3-yl}carbonyl)amino]propanoic acid], the IC50 in assay [4] is 0.041 µM; in assay [2], 0.036 µM; in assay [3], 0.021 µM.

With `COC(=O)CCNC(=O)c1c[nH]c(-c2cc(Oc3cc(C(=O)Nc4cc(C)ccc4F)ccc3F)ccn2)c1` [Example 259, methyl 3-[({5-[4-(2-fluoro-5-{[(2-fluoro-5-methylphenyl)amino]carbonyl}phenoxy)pyridin-2-yl]-1H-pyrrol-3-yl}carbonyl)amino]propanoate], the IC50 in assay [4] amounted to 0.047 µM; in assay [2], 0.035 µM; in assay [3], 0.023 µM.

`Cc1ccc(F)c(NC(=O)Nc2ccc(Oc3ccnc(-c4csc(C(=O)NCCC(=O)O)c4)c3)cc2)c1` [Example 278, 3-{[(4-{4-[4-({[(2-fluoro-5-methylphenyl)amino]carbonyl}amino)phenoxy]pyridin-2-yl}-2-thienyl)carbonyl]amino}propanoic acid]: the IC50 is 0.016 µM in assay [4], 0.014 µM in assay [2] and 0.015 µM in assay [3].
